Converted amounts (≈) assume the structure as drawn.
Conditions: buffer; pH 7.4; 200.0 µM

`Cc1cccc(C)c1NC(=O)CN(C)CC(=O)N1CC(=O)Nc2ccccc21` and `CC1(C)C(=O)Nc2ccccc2N1C(=O)COC(=O)c1cccnc1Cl` cannot be ordered by solubility kinetic: over 57.1 µg/mL for the first, over 56.1 µg/mL for the second.

Compared with `COc1ccc(CNC(=O)CSc2nc(SC)ns2)cc1`, `COC(=O)/C=C1\SC(=Nc2ccc(OC)cc2)NC1=O` is 14-fold lower in solubility kinetic: 26.4 µg/mL (≈ 77.3 µM) for the first, 1.9 µg/mL (≈ 6.5 µM) for the second.

Compared with `CCCOC1CCCN(Cc2nc(-c3cnccn3)no2)C1` (stereo not given), `Cn1c(SCC(=O)NC2CCCC2)nnc1-c1ccccn1` is higher in solubility kinetic: 41.3 µg/mL (≈ 136 µM) for the first, over 47.6 µg/mL for the second.

`CCC(=O)c1ccc(OCC(=O)OCC(=O)NCC2CCCO2)cc1` (stereo not given) and `CCCn1c(COc2ccc(C(=O)O)cc2)nc2ccccc21` cannot be ordered by solubility kinetic: 49.5 µg/mL (≈ 142 µM) for the first, over 46.6 µg/mL for the second.

First: COc1ccc2c(c1)c(C(=O)O)c(C)n2-c1ccccc1
Second: COc1ccc(C(=O)/C=C2/C(=O)Nc3ccccc32)c(OC)c1
The solubility kinetic of the first is 3-fold higher: 38.4 µg/mL (≈ 137 µM) for the first, 12.7 µg/mL (≈ 41.1 µM) for the second.

Going from `OC(c1nc2ccc(F)cc2[nH]1)C(O)c1nc2ccc(F)cc2[nH]1` (stereo not given) to `CCCC(NC(=O)c1ccc(Br)o1)c1nc2ccccc2[nH]1` (stereo not given), the solubility kinetic falls from over 49.5 µg/mL to 6.2 µg/mL (≈ 17.1 µM).

Compared with `COc1ccc(C(=O)Nc2ccc3ncccc3c2)cc1`, `COC(=O)/C(=C\C(=O)c1ccccc1)Nc1ccc(OC)cc1` is 1.6-fold lower in solubility kinetic: 12.1 µg/mL (≈ 43.5 µM) for the first, 7.6 µg/mL (≈ 24.4 µM) for the second.

Going from `COc1ccccc1NC(=O)COc1ccccc1C(=O)Nc1ccccc1` to `O=C(NCc1ccccc1)c1c(O)c2ccccc2[nH]c1=O`, the solubility kinetic falls from 5.9 µg/mL (≈ 15.7 µM) to under 0.3 µg/mL.

Going from `COc1ccc(S(=O)(=O)NC(Cc2ccccc2)C(=O)O)cc1` (stereo not given) to `Cc1cccc(NC(=O)CCc2ccccc2)c1`, the solubility kinetic falls from over 50.3 µg/mL to 35 µg/mL (≈ 146 µM).

First: N#Cc1c2ccc(OCC(N)=O)cc2n2ccccc12
Second: O=C(Cc1ccc(Cl)cc1)Nc1cccc2ncccc12
The solubility kinetic of the first is 2-fold lower: 1.95 µg/mL (≈ 7.35 µM) for the first, 3.9 µg/mL (≈ 13.1 µM) for the second.

`C/C(=C\c1cccs1)C(=O)c1c(C)cc(C)[nH]c1=O` and `Cc1ccc(C)c(NC(=O)CN(C)C(=O)c2sccc2C)c1` cannot be ordered by solubility kinetic: over 41 µg/mL for the first, over 47.5 µg/mL for the second.

First: O=Cc1c(NCCc2cccc(F)c2)c2ccccc2[nH]c1=O
Second: CN(C)CCNS(=O)(=O)c1ccc2c3c(cccc13)C(=O)N2
The solubility kinetic of the first is lower: 9.3 µg/mL (≈ 30 µM) for the first, over 47.9 µg/mL for the second.

Compared with `COc1cc(C(=O)NCCCCc2ccccc2)cc(OC)c1OC`, `COc1cc(CN2CCC(CO)(CCOc3ccccc3)CC2)cc(OC)c1` is 12-fold higher in solubility kinetic: 4.5 µg/mL (≈ 13.1 µM) for the first, 52.2 µg/mL (≈ 135 µM) for the second.

`Cc1nnc(SC(C)C#N)n1-c1ccccc1` (stereo not given) and `CCOC(=O)c1ccccc1NC(=O)CSc1nncn1C` cannot be ordered by solubility kinetic: over 36.6 µg/mL for the first, over 48.1 µg/mL for the second.

`Cc1ccc(N2CCN(C(=O)NC3CCCCC3)CC2C)cc1` (stereo not given) and `CC(C)c1ccc(NC2CCCN(C(=O)c3ccco3)C2)cc1` (stereo not given) cannot be ordered by solubility kinetic: over 47.3 µg/mL for the first, over 46.9 µg/mL for the second.

`COc1ccc(OC)c(-c2cc(C(=O)N3CCOCC3)no2)c1` and `COC(=O)c1[nH]c2cc(C)ccc2c1NC(=O)CN1CCOCC1` cannot be ordered by solubility kinetic: over 47.7 µg/mL for the first, over 49.7 µg/mL for the second.

Going from `C=CCn1c(CCC)nc2ccccc21` to `CCCc1cc(=O)[nH]c(SCC(=O)Nc2ccc(C)cc2)n1`, the solubility kinetic falls from over 30 µg/mL to 3.1 µg/mL (≈ 9.77 µM).

`Cc1ccc(Cl)cc1NC(=O)N[C@@H](CC(C)C)C(=O)O` and `CC(C)c1ccc(NC(=O)CNCC(c2ccccc2)N(C)C)cc1` (stereo not given) are within 1.5-fold of each other in solubility kinetic: 43.8 µg/mL (≈ 147 µM) for the first, 32.9 µg/mL (≈ 96.9 µM) for the second.

Going from `O=C(N1CCN(CCO)CC1)N1c2ccccc2CCc2ccccc21` to `O=C(c1ccc([N+](=O)[O-])cc1Cl)N1CCN(c2ccccn2)CC1`, the solubility kinetic rises from 45.9 µg/mL (≈ 131 µM) to over 52 µg/mL.

`CC(C)Cn1c(N)c(C=O)c(=O)[nH]c1=O` and `COc1ccc(NS(=O)(=O)c2c(C)[nH]c(=O)[nH]c2=O)cc1OC` cannot be ordered by solubility kinetic: over 31.7 µg/mL for the first, over 51.2 µg/mL for the second.

First: CCOC(=O)C1(C)NC(c2ccco2)C2C(=O)N(C)C(=O)C21 (stereo not given)
Second: CCC(=O)N(CCC(c1ccco1)C(C)C)Cc1ccccc1 (stereo not given)
The solubility kinetic of the first is higher: over 45.9 µg/mL for the first, 23.7 µg/mL (≈ 75.6 µM) for the second.

`Cc1ccc(CNC(=O)CN2CCN(c3ccc(F)cc3)CC2)cc1` and `CC(=O)C1=C(O)C(=O)N(c2ccc(O)cc2)C1c1ccc(F)cc1` (stereo not given) cannot be ordered by solubility kinetic: over 51.2 µg/mL for the first, over 49.1 µg/mL for the second.

Compared with `CCCCCCN1C=CC=C/C1=C\C=C(C#N)C#N`, `CCCCC(=O)NC(c1ccccc1)c1ccc2cccnc2c1O` (stereo not given) is lower in solubility kinetic: 3.9 µg/mL (≈ 15.4 µM) for the first, under 0.4 µg/mL for the second.

First: N#C/C(=C\c1c[nH]c2ccccc12)C(=O)NC1CCCC1
Second: CN(C)C(=O)Nc1ccccc1
The solubility kinetic of the first is lower: 1.8 µg/mL (≈ 6.44 µM) for the first, over 24.6 µg/mL for the second.

First: Cn1cnnc1SCC(=O)NNC(=O)c1ccc([N+](=O)[O-])cc1
Second: O=[N+]([O-])c1ccc(SCc2ccncc2)nc1
The solubility kinetic of the first is higher: over 50.4 µg/mL for the first, 30.5 µg/mL (≈ 123 µM) for the second.

`CN1N=C(C(=O)Nc2ccc3c(c2)CCC3)CCC1=O` and `Cc1ccc(C)c(C(=O)Nc2ccncc2)c1` cannot be ordered by solubility kinetic: over 40.7 µg/mL for the first, over 33.9 µg/mL for the second.

`c1ccc(N2CCN(Cc3cnc(N4CCOCC4)s3)CC2)cc1` and `O=C(NCCC(=O)N1CCCCC1)c1ccc(Br)cc1` cannot be ordered by solubility kinetic: over 51.7 µg/mL for the first, over 50.9 µg/mL for the second.

Going from `C=CCNC(=S)N/N=C(\C)c1cccc(NC(C)=O)c1` to `Cc1cccc(N(O)C(=O)Nc2cccc(Cl)c2)c1`, the solubility kinetic falls from over 43.6 µg/mL to 10.2 µg/mL (≈ 36.9 µM).

Compared with `Cc1cc(/C=C2/C(=O)NC(=O)N(c3ccc(Br)cc3)C2=O)c(C)n1C`, `CC1C(=O)Nc2ccccc2N1C(=O)c1ccc(Cl)c(Cl)c1` (stereo not given) is 6.8-fold higher in solubility kinetic: 5.3 µg/mL (≈ 13.2 µM) for the first, 36.2 µg/mL (≈ 108 µM) for the second.

Compared with `Nc1ccc(C(=O)NC23CC4CC(CC(C4)C2)C3)cc1`, `Cc1csc(SCC(=O)N(C)C2CCS(=O)(=O)C2)n1` (stereo not given) is higher in solubility kinetic: 37.3 µg/mL (≈ 138 µM) for the first, over 48.1 µg/mL for the second.
